Laboratory results reported in US20050043245A1, “Non-mammalian GnRH analogs and uses thereof in the immune system” (priority 2003, published 2005).
Square brackets hold non-standard residues; d marks the D form. Ends that are not written are not given here. Peptide text beside a SMILES is read from it. pGlu = O=C1CC[C@@H](C(=O)O)N1; azaGly = NNC(=O)O

How the values were obtained:
[1] = test system: human leukocytes; test: Cytokine release from cultured human leukocytes; assay type: cell-based; details: for effect on IL-4 production / effect on IL-8 production / effect on IL-10 production / effect on Interferon γ (INFγ) production: 2×10^−9 to 2×10^−7 M at 1, 3 and 20 hours; for activity on immune systems cytokines: compared among GnRH forms, varying doses
Protocol: Tissues of the immune system have been examined for the ability of their cells in vitro to respond to GnRH II (SEQ ID NO: 6) in culture medium. The media from cell cultures of immune system tissues have been examined for the release of cytokine into the medium after incubation with and without GnRH II analog (SEQ ID NO: 2).
Cell cultures of human leukocytes tissues have been prepared. […] The release of cytokines into the medium have been determined and compared for each form of GnRH studied.
We studied the effect of cytokines primarily produced by T cells. […] Concentrations of 2×10^−9 to 2×10^−7 M at 1, 3 and 20 hours were studied.
We have also studied cytokine produced primarily by B cells and macrophages. […] This is consistent with opposing activities followed by downregulation of the receptors with chronic high concentrations of the ligand.
Using our GnRH II analog (SEQ ID NO: 2) an inhibition of GM-CSF was clearly apparent after 20 hours of exposure.

[2] = test system: immune system receptor; test: Immune system GnRH receptor binding; design: species or system human
Excerpt: The receptor binding activity of non-mammalian GnRH (SEQ ID NO: 6 and SEQ ID NO: 7) and non-mammalian GnRH analogs (SEQ ID NO: 2 and SEQ ID NO: 4) of the present invention will be compared. There is a human non-mammalian GnRH receptor which is distinct from the GnRH I receptor at the pituitary. […] They have also been designed to limit degradation by the immune system enzymes, present in lymphatic circulation. Binding activity of the newly synthesized non-mammalian GnRH analogs (SEQ ID NO: 2 and SEQ ID NO: 4) has been studied in plasma.
The newly synthesized non-mammalian GnRH analogs (SEQ ID NO: 2 and SEQ ID NO: 4) and other commercially available analogs have been used in receptor binding studies in plasma and enzyme stability study described here. On the basis of these studies, the most receptor potent and most enzyme-stable analogs have been chosen for further biopotency studies. GnRH receptors have been purified from the fractions from immune system tissues. The purification procedure for the GnRH receptor utilized ethanol precipatation of the receptor and not the GnRH. The remaining non-mammalian GnRH binding assays activity using ^125I-D-Arg-GnRH II-Aza-Gly-2^125 label and GnRH II have been performed. Receptors from two different tissues from the same type of immune system cells have been used to study each of these analogs. […]

[3] = Whole blood, plasma and serum stability of GnRH II analog; assay type: in vitro ADME
Protocol: FIG. 2 is a graph showing stability of GnRH II analog in blood and plasma. GnRH II Analog is stable throughout twenty-four hour of incubation in plasma and for the seventeen hours in serum following the initial serum formation.
The enzymatic degradation of the non-mammalian GnRH (SEQ ID NO: 6) and its analog (SEQ ID NO: 2) were studied using whole blood and plasma stability studies. A peptidase present in the immune system was used. Non-mammalian GnRH analogs (SEQ ID NO: 2) were designed with these specific criteria in mind. The stability of these non-mammalian GnRH analogs (SEQ ID NO: 2) to the enzymatic activity of the peptidase and in immune system cells were examined.
Each of these analogs was then studied for their ability to resist degradation over time of incubation with the immune system cells at 37° C. The reaction was stopped by freezing and the remaining GnRH I substrate, GnRH II substrate or non-mammalian analog was directly quantified by radioimmunoassay.
Studies using whole immune system cells were also performed. […] FIG. 2 is a graph showing stability of GnRH II in blood and plasma.

[4] = test system: rhesus monkeys; details: chronic administration, long-acting; cited from earlier work
[5] = test system: placental GnRH receptor; details: cited from earlier work
[6] = test system: T cells; details: effects only seen after twenty-four hours; cited from earlier work
[7] = molecular target: T1, human pituitary GnRH receptor (Homo sapiens, UniProt P30968); details: cited from earlier work
T1 sequence (P30968 1-328): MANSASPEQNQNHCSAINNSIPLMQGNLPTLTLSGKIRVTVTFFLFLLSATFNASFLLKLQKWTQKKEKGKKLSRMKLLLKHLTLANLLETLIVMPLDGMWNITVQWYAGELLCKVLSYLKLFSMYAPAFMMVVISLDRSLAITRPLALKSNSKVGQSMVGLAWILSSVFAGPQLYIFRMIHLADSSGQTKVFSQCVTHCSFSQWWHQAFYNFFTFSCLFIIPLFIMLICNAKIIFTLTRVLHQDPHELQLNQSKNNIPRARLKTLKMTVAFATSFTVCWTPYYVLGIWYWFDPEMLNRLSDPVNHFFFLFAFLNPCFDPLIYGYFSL

[8] = test system: human placental explants; details: in vitro; cited from earlier work
[9] = after one hour of treatment, still observed at 3 and 20 hours

| Compound | effect on IL-4 production [1] | effect on IL-8 production [1] | effect on IL-10 production [1] | effect on Interferon γ (INFγ) production [1] | effect on Interleukin 12 (IL-12) [1, 9] | affinity for the immune system receptor relative to GnRH I [2] | activity on immune systems cytokines [1] | affinity for the placental GnRH receptor [5] | affinity for the human pituitary GnRH receptor [7] | also measured |
| --- | --- | --- | --- | --- | --- | --- | --- | --- | --- | --- |
| CCNC(=O)[C@@H]1CCCN1C(=O)[C@H](CCCNC(=N)N)NC(=O)[C@H](CC(C)C)NC(=O)[C@@H](COC(C)(C)C)NC(=O)[C@H](Cc1ccc(O)cc1)NC(=O)[C@H](CO)NC(=O)[C@H](Cc1c[nH]c2ccccc12)NC(=O)[C@H](Cc1cnc[nH]1)NC(=O)[C@@H]1CCC(=O)N1 [Buserelin] | no effects | no effects | no effects | no effects | inhibited |  |  |  |  |  |
| N=C(N)NCCC[C@@H](NC(=O)[C@H](Cc1c[nH]cn1)NC(=O)[C@H](CO)NC(=O)[C@H](Cc1c[nH]c2ccccc12)NC(=O)[C@H](Cc1c[nH]cn1)NC(=O)[C@@H]1CCC(=O)N1)C(=O)N[C@@H](Cc1c[nH]c2ccccc12)C(=O)N[C@@H](Cc1ccc(O)cc1)C(=O)N1CCC[C@H]1C(=O)NNC(N)=O [GnRH II analog, D-Arg-GnRH II-aza-Gly-amide] ([pGlu]HWSH[dR]WYP[azaGly]-NH2) | no effects | no effects | no effects | no effects | inhibited | greater affinity | most active |  |  | effect on GM-CSF release ([1]; 20 hours): inhibition; stability in serum ([3]; seventeen hours in serum following the initial serum formation): stable; stability in plasma ([3]; throughout twenty-four hour of incubation in plasma): stable |
| GnRH II: chicken II GnRH, natural non-mammalian GnRH isoform ([pGlu]HWSHGWYPG; ends and bridges not checked; listed as Gallus gallus) | no effects | no effects | no effects | no effects |  |  | greater activity | higher affinity | lesser affinity | contraceptive effect [4]: effective contraceptive agent; effect on Interleukin 12 (IL-12) ([1]; at 3 hours): inhibition; effect on GM-CSF release ([1]; high dose, 3 hrs): inhibits; effect on GM-CSF release ([1]; low dose, 3 hrs): potent stimulant; T cells adhesion and homing [6]: stimulates |
| [N-Ac-Pro,D-p-Cl-Phe,D-Nal(2)]-GnRH I |  |  |  |  |  |  |  |  |  | hCG production/release [8]: inhibition; placental prostanoids / basal prostaglandin production [8]: inhibited; progesterone production [8]: dramatically suppressed |
| salmon GnRH analog: salmon GnRH sequence modified at the 6 position using D-Arg and at the 10 position (ethylamide or aza-Gly^10-NH2) |  |  |  |  |  | greater affinity |  |  |  |  |
| salmon GnRH: natural non-mammalian GnRH isoform of salmon ([pGlu]HWSYGWLPG; ends and bridges not checked) |  |  |  |  |  |  |  | higher affinity | lesser affinity |  |
